Measured values: US12612380B2, “Non-lysosomal glucosylceramidase inhibitors and uses thereof” (ALECTOS THERAPEUTICS INC., priority 2019, dated 2026)

molecular target: T1, GBA2 (Homo sapiens, UniProt Q9HCG7); test: Determination of IC50 values for inhibition of GBA2 in cell lysate; format: biochemical; set-up: host or cells: HEK293T (lentiviral transduction, puromycin selection); used as cellular homogenate; conditions: not given
T1 sequence (Q9HCG7 1-927): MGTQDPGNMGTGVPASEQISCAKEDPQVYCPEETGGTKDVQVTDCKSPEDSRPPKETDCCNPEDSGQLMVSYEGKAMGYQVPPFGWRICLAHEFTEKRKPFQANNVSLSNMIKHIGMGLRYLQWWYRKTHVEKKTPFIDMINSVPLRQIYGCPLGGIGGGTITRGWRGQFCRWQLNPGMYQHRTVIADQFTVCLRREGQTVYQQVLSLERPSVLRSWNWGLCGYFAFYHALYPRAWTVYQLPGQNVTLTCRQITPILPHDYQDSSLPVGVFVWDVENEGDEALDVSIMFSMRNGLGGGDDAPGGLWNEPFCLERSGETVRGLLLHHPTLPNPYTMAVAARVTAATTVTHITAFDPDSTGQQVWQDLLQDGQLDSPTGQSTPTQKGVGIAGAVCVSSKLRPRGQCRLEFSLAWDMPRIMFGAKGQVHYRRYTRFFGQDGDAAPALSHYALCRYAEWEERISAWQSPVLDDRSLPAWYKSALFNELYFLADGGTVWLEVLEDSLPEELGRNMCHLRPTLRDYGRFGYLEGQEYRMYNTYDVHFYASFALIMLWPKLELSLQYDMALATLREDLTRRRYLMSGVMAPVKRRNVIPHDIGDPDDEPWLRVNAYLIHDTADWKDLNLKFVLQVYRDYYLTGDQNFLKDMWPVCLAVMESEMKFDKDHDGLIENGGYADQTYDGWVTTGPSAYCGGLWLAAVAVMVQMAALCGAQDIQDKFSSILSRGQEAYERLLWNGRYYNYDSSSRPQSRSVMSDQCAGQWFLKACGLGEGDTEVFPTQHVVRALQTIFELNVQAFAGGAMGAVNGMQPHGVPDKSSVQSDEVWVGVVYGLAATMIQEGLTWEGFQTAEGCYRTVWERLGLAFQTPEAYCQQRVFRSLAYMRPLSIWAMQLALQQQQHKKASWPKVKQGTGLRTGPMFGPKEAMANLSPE
From the text: Assay for Determination of IC50 Values for Inhibition of GBA2 in Cell Lysate
Stable GBA2-expressing HEK293T cells were generated as follows. The PCR-amplified human GBA2 (GBA2 nucleotide accession number BC011363) using the following primers: Sense 5′---CGCAAATGGGCGGTAGGCGTG (SEQ ID NO:2)---3′ and antisense 5′---TAGTCAGCCATGGGGCGGAGA (SEQ ID NO:3)---3′) was cloned into pLenti-GIII-CMV by ABM Inc. The correctness of the construct was verified by sequencing. Lentivirus particles containing GBA2 in the pLenti-GIII-CMV plasmid were prepared using a third Generation Virus Packaging Mix (ABM cat #LV053-G074) in HEK293T cells and supplied as a virus particle suspension. The virus suspension was used for infection of HEK293T cells. Cell populations stably expressing human GBA2 were selected using puromycin for several weeks as determined by activity assays and western blot.
Various concentrations of test compounds were prepared in DMSO and then diluted into buffer consisting of 100 mM citric acid, 200 mM disodium phosphate with 1% v/v C10E6, pH 5.5. Cellular homogenates (0.25 mg/mL) of the stable HEK293T-overexpressing GBA2 cell line were preincubated for 10 min on ice with an inhibitor of GCase (20 μM (6R,7R,8S)-8-ethyl-4-azaspiro[2.5]octane-6,7-diol). The reaction solution consisted of 20 μL of 750 μM 4-methylumbelliferone-β-D glucopyranoside in 5% DMSO in the same buffer, 20 μL of GBA2-cellular homogenate pre-treated with (6R,7R,8S)-8-ethyl-4-azaspiro[2.5]octane-6,7-diol and 20 μL of various concentrations of test compound in 10% DMSO in the same buffer. The final concentrations in the reaction were 0.083 mg/mL GBA2-cellular homogenate, 250 μM 4-methylumbelliferone-β-D glucopyranoside, and various concentrations of inhibitor. The inhibitor and GBA2-cellular homogenate were preincubated together for 5 min at 37° C. The reaction was initiated by addition of substrate and allowed to proceed for 20 min at 37° C. to assess GBA2 activity. Reactions were stopped by the addition of an equal volume (60 μL) of 0.5 M NaOH, 0.3 M glycine, pH 10.5. Fluorescence was measured on a Biotek Synergy H4 plate reader at wavelengths of 365 nm for excitation and 450 nm for emission. Incubations without added enzyme or added inhibitors were used to define no enzyme activity and maximal enzyme activity, respectively. IC50 values were determined by fitting the data to a log[inhibitor concentration] versus response curve using GraphPad Prism. IC50 values were calculated as the concentration of inhibitor required to inhibit GBA2 activity by 50%.

Row | SMILES | IC50
1 | C[C@@H]1[C@@H](O)[C@H](O)[C@@H](O)CN1CCc1ccccc1 [Example 35, (2R,3R,4R,5S)-2-methyl-1-phenethylpiperidine-3,4,5-triol] | 100 to 1000 nM
2 | Cc1ccccc1CCN1C[C@H](O)[C@@H](O)[C@H](O)[C@H]1C [Example 36, (2R,3R,4R,5S)-2-methyl-1-(2-methylphenethyl)piperidine-3,4,5-triol] | 100 to 1000 nM
3 | COc1ccccc1CCN1C[C@H](O)[C@@H](O)[C@H](O)[C@H]1C [Example 37, (2R,3R,4R,5S)-1-(2-methoxyphenethyl)-2-methylpiperidine-3,4,5-triol] | 100 to 1000 nM
4 | C[C@@H]1[C@@H](O)[C@H](O)[C@@H](O)CN1CCc1ccccc1F [Example 38, (2R,3R,4R,5S)-1-(2-fluorophenethyl)-2-methylpiperidine-3,4,5-triol] | 100 to 1000 nM
5 | C[C@@H]1[C@@H](O)[C@H](O)[C@@H](O)CN1CCc1ccccc1Cl [Example 39, (2R,3R,4R,5S)-1-(2-chlorophenethyl)-2-methylpiperidine-3,4,5-triol] | 100 to 1000 nM
6 | C[C@@H]1[C@@H](O)[C@H](O)[C@@H](O)CN1CCc1cccc(F)c1F [Example 40, (2R,3R,4R,5S)-1-(2,3-difluorophenethyl)-2-methylpiperidine-3,4,5-triol] | 100 to 1000 nM

same assay, conditions: cellular homogenate of HEK293T cells overexpressing human GBA2, 250 μM 4-methylumbelliferone-β-D glucopyranoside, pH 5.5, 37° C., GCase inhibitor present; read-out: GBA2 IC50

Row | SMILES | IC50
7 | C[C@@H]1[C@@H](O)[C@H](O)[C@@H](O)CN1CC1CCc2ccccc2C1 (stereo partly drawn) [Example 27, (2R,3R,4R,5S)-2-methyl-1-((1,2,3,4-tetrahydronaphthalen-2-yl)methyl)piperidine-3,4,5-triol] | < 100 nM
8 | C[C@@H]1[C@@H](O)[C@H](O)[C@@H](O)CN1CC1Cc2ccccc2C1 [Example 28, (2R,3R,4R,5S)-1-((2,3-dihydro-1H-inden-2-yl)methyl)-2-methylpiperidine-3,4,5-triol] | < 100 nM
9 | C[C@@H]1[C@@H](O)[C@H](O)[C@@H](O)CN1CC[C@H]1CC[C@@H](C(F)(F)F)CC1 [Example 31, (2R,3R,4R,5S)-2-methyl-1-(2-((1s,4S)-4-(trifluoromethyl)cyclohexyl)ethyl)piperidine-3,4,5-triol] | < 100 nM
10 | C[C@@H]1[C@@H](O)[C@H](O)[C@@H](O)CN1CCC12CC3CC(CC(C3)C1)C2 [Example 33, (2R,3R,4R,5S)-1-((2-adamantan-1-yl)ethyl)-2-methylpiperidine-3,4,5-triol] | < 100 nM

Second part, the compound after the results:

Row | IC50 | SMILES
11 | 100 to 1000 nM | C[C@@H]1[C@@H](O)[C@H](O)[C@@H](O)CN1CC1CCC2(CC1)CC2 [Example 23, (2R,3R,4R,5S)-2-methyl-1-(spiro[2.5]octan-6-ylmethyl)piperidine-3,4,5-triol]
12 | < 100 nM | C[C@@H]1[C@@H](O)[C@H](O)[C@@H](O)CN1CC1CCC2(CCCC2)CC1 [Example 25, (2R,3R,4R,5S)-2-methyl-1-(spiro[4.5]decan-8-ylmethyl)piperidine-3,4,5-triol]
13 | 100 to 1000 nM | C[C@@H]1[C@@H](O)[C@H](O)[C@@H](O)CN1C[C@H]1CC[C@]2(CC1)COC(C)(C)C2 [Example 26, (2R,3R,4R,5S)-1-(((5S,8s)-3,3-dimethyl-2-oxaspiro[4.5]decan-8-yl)methyl)-2-methylpiperidine-3,4,5-triol]
14 | 100 to 1000 nM | C[C@@H]1[C@@H](O)[C@H](O)[C@@H](O)CN1CCC1CCCCC1 [Example 29, (2R,3R,4R,5S)-1-(2-cyclohexylethyl)-2-methylpiperidine-3,4,5-triol]
15 | 100 to 1000 nM | C[C@@H]1[C@@H](O)[C@H](O)[C@@H](O)CN1CCC1CCC(F)(F)CC1 [Example 30, (2R,3R,4R,5S)-1-(2-(4,4-difluorocyclohexyl)ethyl)-2-methylpiperidine-3,4,5-triol]
16 | < 100 nM | C[C@@H]1[C@@H](O)[C@H](O)[C@@H](O)CN1CC[C@H]1CC[C@H](C(F)(F)F)CC1 [Example 32, (2R,3R,4R,5S)-2-methyl-1-(2-((1r,4R)-4-(trifluoromethyl)cyclohexyl)ethyl)piperidine-3,4,5-triol]
17 | < 100 nM | C[C@@H]1[C@@H](O)[C@H](O)[C@@H](O)CN1CCCC1CCCCC1 [Example 34, (2R,3R,4R,5S)-1-(3-cyclohexylpropyl)-2-methylpiperidine-3,4,5-triol]
